Like-named read-outs stand apart in the source and are kept apart here.
Key:
[1] = target: T1, MALT1 (Homo sapiens, UniProt Q9UDY8); experiment: EC50 determination for MALT1 inhibition (Trypan blue dye-exclusion in cell lines); assay type: cell-based
T1 construct: endogenous in cells
T1 sequence (Q9UDY8 1-824): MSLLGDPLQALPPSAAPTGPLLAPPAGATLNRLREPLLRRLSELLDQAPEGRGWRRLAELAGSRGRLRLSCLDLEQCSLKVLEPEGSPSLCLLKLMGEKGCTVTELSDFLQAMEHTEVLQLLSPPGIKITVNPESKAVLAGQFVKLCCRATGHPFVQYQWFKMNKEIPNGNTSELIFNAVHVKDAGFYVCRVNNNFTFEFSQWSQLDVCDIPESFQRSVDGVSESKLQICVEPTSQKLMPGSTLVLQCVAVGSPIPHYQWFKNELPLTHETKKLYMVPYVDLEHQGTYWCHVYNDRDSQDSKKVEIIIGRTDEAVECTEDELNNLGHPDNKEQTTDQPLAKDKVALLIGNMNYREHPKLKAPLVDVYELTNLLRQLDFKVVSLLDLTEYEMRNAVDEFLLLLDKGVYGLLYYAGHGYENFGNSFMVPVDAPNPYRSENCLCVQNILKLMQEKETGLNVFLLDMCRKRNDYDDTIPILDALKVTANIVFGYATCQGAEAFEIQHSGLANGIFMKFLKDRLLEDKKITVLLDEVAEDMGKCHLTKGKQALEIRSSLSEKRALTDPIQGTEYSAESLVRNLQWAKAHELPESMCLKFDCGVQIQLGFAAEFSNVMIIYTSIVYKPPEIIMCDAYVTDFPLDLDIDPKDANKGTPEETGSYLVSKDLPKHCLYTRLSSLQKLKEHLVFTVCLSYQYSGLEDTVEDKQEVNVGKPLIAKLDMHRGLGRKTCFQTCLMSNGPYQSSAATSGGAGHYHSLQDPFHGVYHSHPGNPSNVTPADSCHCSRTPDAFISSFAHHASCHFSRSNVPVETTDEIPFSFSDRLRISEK
Text: The term is quite general, regardless of whether a test-compound enhances or diminishes the biological parameter in question. Its equation is a modified version of the IC50 equation, taking the ratio of the response (R) to the maximum response (Rmax): {R/Rmax} = {1/ [1+(E50/I)n]}. […] However, some test-compounds achieve only partial attenuation of a biological activity, even at high concentrations. In this case, IC50 values may be misleading about potency.
Cell lines were in log phase of growth, harvested and seeded in a 96-well plate at optimum plating density. Next, cells were incubated with and without test-compounds (0.1 µM - 1 µM - 10 µM) in the presence of positive, negative and untreated controls.

[2] = target: T2, recombinant full-length human MALT1 (Homo sapiens, UniProt Q9UDY8); experiment: Fluorogenic MALT1 proteolytic activity assay with Ac-LRSR-AMC substrate; assay type: biochemical; conditions: read-out: percent inhibition of MALT1 proteolytic activity
T2 construct: recombinant full-length human MALT1
T2 sequence (Q9UDY8 1-824): T1 sequence (Q9UDY8 1-824)
Experimental: Fluorogenic reactions were monitored in the presence of recombinant full-length human MALT1 and Ac-LRSR-AMC (Ac-Leu-Arg-Ser-Arg-7-amino-4-methylcoumarin) - SEQ ID NO:1 - with excitation/emission wavelengths of 360/460 nm in black, low binding microtiter plates using a microplate reader. Cleavage of the Ac-LRSR-AMC substrate by MALT1 results in the release of AMC and a fluorescent signal. […] The final percent inhibition was calculated with the formula: {[fluorescence_test compound(T2-T1) - fluorescence_negative control (T2-T1)]/ [fluorescence_positive control (T2-T1) - fluorescence_negative control (T2-T1)]} × 100. […] A so-called buffer only test-condition (i.e. MALT1+Ac-LRSR-AMC substrate+buffer) served as negative control. […] MI-2 (C19H17Cl3N4O3; 2-chloro-N-[4-[5-(3,4-dichlorophenyl)-3-(2-methoxyethoxy)-1,2,4-triazol-1-yl] phenyl] acetamide) is an orthosteric and irreversible MALT1 inhibitor (Fontán et al, 2012).

[3] = target: T3, CYP2B6 (Homo sapiens, UniProt P20813); experiment: CYP450 inhibition/induction, baculosomes, fluorescent substrate, kinetic model; assay type: in vitro ADME; conditions: 1 µM; 20°C; t = 60 min
T3 construct: purchased Thermo Fisher Scientific (Waltham, MA, USA); host or cells: baculosomes
T3 sequence (P20813 1-491): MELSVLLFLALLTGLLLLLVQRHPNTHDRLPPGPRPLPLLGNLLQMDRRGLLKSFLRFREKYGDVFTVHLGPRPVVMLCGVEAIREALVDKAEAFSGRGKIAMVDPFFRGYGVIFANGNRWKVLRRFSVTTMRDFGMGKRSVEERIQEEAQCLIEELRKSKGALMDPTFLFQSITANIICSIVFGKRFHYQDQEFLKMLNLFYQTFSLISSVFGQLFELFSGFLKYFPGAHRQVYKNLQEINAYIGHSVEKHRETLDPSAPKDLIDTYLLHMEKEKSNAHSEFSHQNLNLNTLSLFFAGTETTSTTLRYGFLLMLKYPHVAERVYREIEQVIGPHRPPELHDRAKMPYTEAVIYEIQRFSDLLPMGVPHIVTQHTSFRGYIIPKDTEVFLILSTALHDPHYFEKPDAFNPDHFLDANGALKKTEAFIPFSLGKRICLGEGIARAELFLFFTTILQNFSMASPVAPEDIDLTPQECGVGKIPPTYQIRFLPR
Experimental: (§1) To determine the isozyme-specific CYP450-metabolism, baculosomes® expressing CYP1A2, CYP2A6, CYP2B6, CYP2C9, CYP2C19, CYP2D6 and CYP3A4 human CYP450 isoenzymes were purchased from Thermo Fisher Scientific (Waltham, MA, USA). All reagents were handled and prepared according to the manufacturer's protocol. Sitagliptin was tested at 1 µM. Enzymatic activity in the presence of sitagliptin was assessed based on the kinetic model for CYP1A2, CYP2A6, CYP2B6, CYP2C9, CYP2C19, CYP2D6 and CYP3A4 isoforms. Reactions took place in triplicates at 20°C. Glucose-6-phosphate at 333 mM and glucose-6-phosphate-dehydrogenase at 30 U/mL in 100 mM potassium phosphate, pH 8.0 (regeneration system) converted NADP+ (10 mM in 100 mM potassium phosphate, pH 8.0) into NADPH to initiate the CYP450 reaction. Upon the addition of the fluorescent substrate, immediately (<2 min), the fluorescence signal was monitored over time at suitable excitation and emission wavelengths by Lionheart FX (BioTek, Winooski, VT, USA). CYP450 inhibition (%) was determined based on the reaction rates (fluorescence intensity changes per unit time).

[4] = target: CYP1A2 (Homo sapiens, UniProt P05177); experiment: as above; assay type: in vitro ADME; conditions: 1 µM; 20°C; t = 60 min
CYP1A2, sequence (P05177 whole entry): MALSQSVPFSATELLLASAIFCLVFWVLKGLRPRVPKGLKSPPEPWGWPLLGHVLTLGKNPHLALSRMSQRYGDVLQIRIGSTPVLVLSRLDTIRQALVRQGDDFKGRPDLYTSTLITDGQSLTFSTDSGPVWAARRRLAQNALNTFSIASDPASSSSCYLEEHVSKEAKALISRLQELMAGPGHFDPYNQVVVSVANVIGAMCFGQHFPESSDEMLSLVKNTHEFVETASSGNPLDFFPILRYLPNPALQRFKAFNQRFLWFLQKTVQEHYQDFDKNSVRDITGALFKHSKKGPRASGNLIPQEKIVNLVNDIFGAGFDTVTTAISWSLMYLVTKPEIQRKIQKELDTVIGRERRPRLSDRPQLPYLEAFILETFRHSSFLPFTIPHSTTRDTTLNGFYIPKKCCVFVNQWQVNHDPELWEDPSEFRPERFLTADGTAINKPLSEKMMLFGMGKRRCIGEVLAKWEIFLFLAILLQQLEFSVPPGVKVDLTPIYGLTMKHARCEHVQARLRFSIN
Experimental: as §1

[5] = target: T4, CYP2C19 (Homo sapiens, UniProt P33261); experiment: as above; assay type: in vitro ADME; conditions: 1 µM; 20°C; t = 60 min
T4 construct: purchased Thermo Fisher Scientific (Waltham, MA, USA); host or cells: baculosomes
T4 sequence (P33261 whole entry): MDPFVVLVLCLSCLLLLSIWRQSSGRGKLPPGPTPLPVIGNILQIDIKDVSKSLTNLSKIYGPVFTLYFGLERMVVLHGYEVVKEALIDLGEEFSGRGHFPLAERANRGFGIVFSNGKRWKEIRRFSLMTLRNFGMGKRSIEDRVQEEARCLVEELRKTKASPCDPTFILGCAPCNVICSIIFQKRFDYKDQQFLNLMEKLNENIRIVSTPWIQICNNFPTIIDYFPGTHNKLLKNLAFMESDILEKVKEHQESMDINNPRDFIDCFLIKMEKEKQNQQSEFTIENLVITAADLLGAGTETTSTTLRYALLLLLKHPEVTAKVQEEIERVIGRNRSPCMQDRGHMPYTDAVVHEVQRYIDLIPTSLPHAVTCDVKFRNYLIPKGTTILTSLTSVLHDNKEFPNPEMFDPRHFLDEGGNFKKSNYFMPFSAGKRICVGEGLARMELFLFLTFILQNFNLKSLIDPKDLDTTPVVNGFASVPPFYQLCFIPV
Experimental: as §1

[6] = target: T5, CYP3A4 (Homo sapiens, UniProt P08684); experiment: as above; assay type: in vitro ADME; conditions: 1 µM; 20°C; t = 60 min
T5 construct: purchased Thermo Fisher Scientific (Waltham, MA, USA); host or cells: baculosomes
T5 sequence (P08684 whole entry): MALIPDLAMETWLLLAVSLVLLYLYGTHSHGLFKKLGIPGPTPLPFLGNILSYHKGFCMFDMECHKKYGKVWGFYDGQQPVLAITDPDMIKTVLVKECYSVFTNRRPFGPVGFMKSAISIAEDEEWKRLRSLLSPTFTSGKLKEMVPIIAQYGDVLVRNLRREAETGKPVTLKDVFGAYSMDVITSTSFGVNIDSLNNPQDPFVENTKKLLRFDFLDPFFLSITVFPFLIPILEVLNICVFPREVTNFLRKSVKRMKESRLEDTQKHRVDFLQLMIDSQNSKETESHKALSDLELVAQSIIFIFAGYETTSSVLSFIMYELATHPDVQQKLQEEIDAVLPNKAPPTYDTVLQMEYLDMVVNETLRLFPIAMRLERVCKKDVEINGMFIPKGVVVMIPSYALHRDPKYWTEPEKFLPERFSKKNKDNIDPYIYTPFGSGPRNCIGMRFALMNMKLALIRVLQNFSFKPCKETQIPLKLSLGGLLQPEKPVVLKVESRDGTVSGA
Experimental: as §1

[7] = target: T6, CYP2C9 (Homo sapiens, UniProt P11712); experiment: as above; assay type: in vitro ADME; conditions: 1 µM; 20°C; t = 60 min
T6 construct: purchased Thermo Fisher Scientific (Waltham, MA, USA); host or cells: baculosomes
T6 sequence (P11712 whole entry): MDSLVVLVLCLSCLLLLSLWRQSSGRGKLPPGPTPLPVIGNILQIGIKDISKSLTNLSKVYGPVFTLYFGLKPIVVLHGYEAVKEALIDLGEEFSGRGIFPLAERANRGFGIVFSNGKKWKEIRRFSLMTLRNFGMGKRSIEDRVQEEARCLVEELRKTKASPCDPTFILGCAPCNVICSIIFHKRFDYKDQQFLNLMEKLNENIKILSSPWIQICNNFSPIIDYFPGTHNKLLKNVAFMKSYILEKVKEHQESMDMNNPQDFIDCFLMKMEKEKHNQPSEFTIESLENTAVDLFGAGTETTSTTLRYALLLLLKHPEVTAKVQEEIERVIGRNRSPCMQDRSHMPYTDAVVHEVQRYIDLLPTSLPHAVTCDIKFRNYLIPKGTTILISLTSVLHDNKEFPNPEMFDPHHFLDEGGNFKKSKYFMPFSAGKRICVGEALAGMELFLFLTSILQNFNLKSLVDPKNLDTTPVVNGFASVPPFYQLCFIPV
Experimental: as §1

[8] = target: T7, CYP2D6 (Homo sapiens, UniProt P10635); experiment: as above; assay type: in vitro ADME; conditions: 1 µM; 20°C; t = 60 min
T7 construct: purchased Thermo Fisher Scientific (Waltham, MA, USA); host or cells: baculosomes
T7 sequence (P10635 whole entry): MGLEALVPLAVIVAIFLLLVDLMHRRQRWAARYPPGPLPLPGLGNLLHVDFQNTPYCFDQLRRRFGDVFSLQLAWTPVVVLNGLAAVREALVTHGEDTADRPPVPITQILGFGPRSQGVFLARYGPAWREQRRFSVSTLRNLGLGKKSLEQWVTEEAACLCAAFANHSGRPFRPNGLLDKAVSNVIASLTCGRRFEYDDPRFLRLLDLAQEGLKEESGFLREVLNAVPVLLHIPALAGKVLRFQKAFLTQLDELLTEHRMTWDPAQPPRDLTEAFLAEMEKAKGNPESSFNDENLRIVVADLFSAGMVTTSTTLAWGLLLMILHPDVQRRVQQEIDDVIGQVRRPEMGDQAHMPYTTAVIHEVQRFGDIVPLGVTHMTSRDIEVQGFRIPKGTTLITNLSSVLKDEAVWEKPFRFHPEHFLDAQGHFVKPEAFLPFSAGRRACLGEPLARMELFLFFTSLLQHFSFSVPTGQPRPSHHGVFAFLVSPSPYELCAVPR
Experimental: as §1

[9] = target: T8, CYP2A6 (Homo sapiens, UniProt P11509); experiment: as above; assay type: in vitro ADME; conditions: 1 µM; 20°C; t = 60 min
T8 construct: purchased Thermo Fisher Scientific (Waltham, MA, USA); host or cells: baculosomes
T8 sequence (P11509 1-494): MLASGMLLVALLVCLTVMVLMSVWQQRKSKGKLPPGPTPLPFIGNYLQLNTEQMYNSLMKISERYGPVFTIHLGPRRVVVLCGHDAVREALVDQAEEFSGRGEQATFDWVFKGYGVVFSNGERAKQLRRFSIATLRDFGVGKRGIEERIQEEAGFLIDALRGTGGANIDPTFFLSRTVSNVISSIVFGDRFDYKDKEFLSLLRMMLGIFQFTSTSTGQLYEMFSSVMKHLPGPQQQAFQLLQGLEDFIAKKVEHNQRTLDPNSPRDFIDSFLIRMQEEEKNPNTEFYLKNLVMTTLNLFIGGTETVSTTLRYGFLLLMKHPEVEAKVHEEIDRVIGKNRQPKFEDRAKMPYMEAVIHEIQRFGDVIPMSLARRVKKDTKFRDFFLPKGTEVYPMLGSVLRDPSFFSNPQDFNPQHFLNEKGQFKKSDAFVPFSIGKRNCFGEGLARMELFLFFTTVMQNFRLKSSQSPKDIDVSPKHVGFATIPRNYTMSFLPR
Experimental: as §1

[10] = system: Glioblastoma multiforme (GBM) cell growth (U3024, U87MG); experiment: Antiproliferative effect on GBM cell growth, 3D cell cultures; assay type: cell-based, human; conditions: tested at 0.1 µM, 1 µM, and 10 µM at t=48h, 3D cultures
Text: To measure the MALT1-dependent antiproliferative effect of sitagliptin on GMB cell growth and at the same time account for biases, U3024, an established and characterized GBM cell line derived from GBM patient surgical samples was chosen (https://www.hgcc.se/). U3024 is of mesenchymal subtype (person) and is characterized by MALT1 overexpression. Cell lines were maintained in serum-free neural stem cell media to retain tumour-initiating capacity as well as tumour specific phenotypes (Pollard et al, 2009). The U87MG glioma cell line served as a bona fide human glioblastoma cell line. Cell cultures were performed in 3D. […] Cell lines were in log phase of growth, harvested and seeded in a 96-well plate at optimum plating density. […] DMSO was <0.05%. […] The results are mean ± standard deviation of three independent experiments done in triplicates. […] Three independent experiments were performed in triplicates.

[11] = system: patient-derived glioblastoma cells (U3024); experiment: Spheroid disintegration in patient-derived glioblastoma cells over-expressing MALT1; assay type: cell-based, human; conditions: 10 µM; U3024 spheroids compared to untreated spheroids
Text: To measure the MALT1-dependent antiproliferative effect of sitagliptin on GMB cell growth and at the same time account for biases, U3024, an established and characterized GBM cell line derived from GBM patient surgical samples was chosen (https://www.hgcc.se/). U3024 is of mesenchymal subtype (person) and is characterized by MALT1 overexpression. Cell lines were maintained in serum-free neural stem cell media to retain tumour-initiating capacity as well as tumour specific phenotypes (Pollard et al, 2009). The U87MG glioma cell line served as a bona fide human glioblastoma cell line. Cell cultures were performed in 3D. […] Cell lines were in log phase of growth, harvested and seeded in a 96-well plate at optimum plating density. […] DMSO was <0.05%.

| SMILES | EC50 [1] [nM] | inhibition at 10 µM [2] [%] | CYP2B6 inhibition / induction [3] | CYP1A2 inhibition / induction [4] | CYP2C19 inhibition / induction [5] | CYP3A4 inhibition / induction [6] | CYP2C9 inhibition / induction [7] | CYP2D6 inhibition / induction [8] | CYP2A6 inhibition / induction [9] | antiproliferative effect on GBM cell growth [10] | EC50 ([1]; 0.1 µM - 1 µM - 10 µM, Trypan blue dye-exclusion at t=48h, mean of three independent experiments in triplicates, read-out: EC50 values) [nM] | inhibition of MALT1 resulting in spheroid disintegration [11] |
| --- | --- | --- | --- | --- | --- | --- | --- | --- | --- | --- | --- | --- |
| COCCOc1nc(-c2ccc(Cl)c(Cl)c2)n(-c2ccc(NC(=O)CCl)cc2)n1 [MI-2, 2-chloro-N-[4-[5-(3,4-dichlorophenyl)-3-(2-methoxyethoxy)-1,2,4-triazol-1-yl]phenyl] acetamide] | 1000 | – | – | – | – | – | – | – | – | – | – | – |
| N[C@@H](CC(=O)N1CCn2c(nnc2C(F)(F)F)C1)Cc1cc(F)c(F)cc1F [Sitagliptin, (3R)-3-amino-1-[3-(trifluoromethyl)-6,8-dihydro-5H-[1,2,4]triazolo[4,3-a]pyrazin-7-yl]-4-(2,4,5-trifluorophenyl)butan-1-one] | – | ≥ 40 | does not inhibit nor induces | does not inhibit nor induces | does not inhibit nor induces | does not inhibit nor induces | does not inhibit nor induces | does not inhibit nor induces | does not inhibit nor induces | strong antiproliferative effect | 1300 | spheroid disintegration |

— patent publication EP4494641A1, “SITAGLIPTIN IS A MALT1 INHIBITOR” (Cloudpharm Private Company, priority 2023, dated 2025)
